Source: EP0160115A1, “Growth stimulating food additive for animals” (SPOFA Spojené Podniky Pro Zdravotnickou Vyrobu, priority 1984, dated 1985)

Tests used:
[1] = Fattening trial in early-weaned piglets with supplemented feed (4 weeks); format: in vivo, Ferkel; settings: 28 days; for Zuwachsindex (%): 100 ppm of each active in feed; for Zuwachsindex (%) / Ausnutzungsindex (%): control = 100,0; for Ausnutzungsindex (%), difference from control (in brackets) / Ausnutzungsindex (%) / Futtermittel-Ausnutzung, x̄: 100 ppm of each active; for Futtermittel-Ausnutzung, x̄: feed consumption per unit of gain, control 2,0
From the text: Frühabgesetzte Ferkel (Mischlinge des weißen edlen Landschweinsx Landrasse), die innerhalb einer Zeitspanne von 6 Tagen geboren waren, wurden aus der Gebärstation am S. Tage nach dem Absetzen in die Versuchsanlage gebracht. Die Ferkel wurden in Gruppen von je 8 bis 12 Tieren in Boxen untergebracht, die mit Rostböden versehen und durch hölzerne Bodenplatten beheizt waren. Nach 7 Tagen Anpassungszeit wurde der eigentliche Mastversuch begonnen. Über die gesamte Versuchsdauer von 4 Wochen wurde in allen Gruppen das Futtergemishc ? OS 2 für früh abgesetzte Ferkel verfüttert, das durch Zusatz der entsprechenden Prämixe jeweils mit folgenden Wirkstoffen angereichert wurde: • Gruppe I (Kontrollgruppe): Futtergemisch allein ohne Zusatz • Gruppe II: Cyadox, 100 ppm (100 mg pro kg Futtergemisch) • Gruppe III: Roh-Tylo-sin, 100 ppm reine Tylosinbase • Gruppe IV : Cyadox und Roh-Tylosin, je 100 ppm.
Zu Beginn des Versuchs und am Versuchsende (28. Tag) wurden die Tiere individuell gewogen. Der Futterverbrauch pro Gruppe wurde täglich ermittelt und daraus die Futtermittelausnutzung, dh der Futterverbrauch pro Zuwachseinheit, berechnet. Ebenso wurde der Allgemeinzustand der Tiere täglich verfolgt.

[2] = Weight gain of pre-fattening pigs on supplemented feed in a herd with bloody diarrhoea (14 days); format: in vivo, Vormastschweine; settings: 100 ppm of each active in feed; for Gesamtzuwachs x̄ (kg): control 8,95; for Endgewicht x̄ (kg): control 59,43; for Tageszuwachs: control 639; for Zuwachsindex (%): control = 100
From the text: Die Versuche wurden in einem Schweinemastbetrieb durchgeführt, bei dem ständig bei 5 bis 15 der Vormastschweine (Rasse BU x PC + L) von etwa 50 kg Gewicht, die in Koben zu 10 bis 15 Tieren untergebracht waren, blutige Durchfälle auftraten. Histologisch und mikrobiologisch wurde als Erreger der Durchfallerkrankung Vibrio coli festgestellt.
(§1) Die Versuchstiere wurden in 4 Gruppen aufgeteilt und während der gesamten Versuchsdauer von 14 Tagen mit dem Vormastschweine-Futtergemisch SOL unter folgender Wirkstoffzugabe behandelt: • Gruppe I (Kontrollgruppe): Futtergemisch allein Gruppe II: Phthalazol, 100 ppm • Gruppe III: Cyadox, 100 ppm • Gruppe IV: Cyadox und Phthalazol, je 100 ppm.

Vibrio coli = assay: Treatment of bloody diarrhoea in pre-fattening pigs via supplemented feed (14 days); format: in vivo, Vormastschweine
From the text: Die Versuche wurden in einem Schweinemastbetrieb durchgeführt, bei dem ständig bei 5 bis 15 der Vormastschweine (Rasse BU x PC + L) von etwa 50 kg Gewicht, die in Koben zu 10 bis 15 Tieren untergebracht waren, blutige Durchfälle auftraten.
as §1

[3] = Ratten, p.o.; cited from earlier work
[4] = 100 ppm of each active in feed, 14 days

Structure (SMILES)	Zuwachsindex (%) [1]	Ausnutzungsindex (%), difference from control (in brackets) [1]	Ausnutzungsindex (%) [1]	Futtermittel-Ausnutzung, x̄ [1]	Gesamtzuwachs x̄ (kg) [2]	Endgewicht x̄ (kg) [2]	Tageszuwachs [2]	Zuwachsindex (%) [2]	Anzeichen blutiger Durchfälle (Vibrio coli; [4])	Heilungsgrad (Vibrio coli; [4])	LD50 [3]	Schweine notgeschlachtet wegen unbefriedigenden Allgemeinzustands (Vibrio coli; at end of trial, group of 20 pigs, 100 ppm)
N#CCC(=O)NN=Cc1c[n+]([O-])c2ccccc2[n+]1[O-] [Cyadox, 2-Formylchinoxalin-1,4-dioxy-cyanacetyl-hydrazon]	109,8%	-0,5%	99,5%	1,99	10,10 kg	57,90 kg	721 g	112,8%	keine Anzeichen blutiger Durchfälle	100	15000 mg/kg	–
O=C(O)c1ccccc1C(=O)Nc1ccc(S(=O)(=O)Nc2nccs2)cc1 [Phthalazol]	–	–	–	–	8,99 kg	59,61 kg	642 g	100,5%	–	–	–	5
CC[C@H]1OC(=O)C[C@@H](O)[C@H](C)[C@@H](O[C@@H]2O[C@H](C)[C@@H](O[C@H]3C[C@@](C)(O)[C@@H](O)[C@H](C)O3)[C@H](N(C)C)[C@H]2O)[C@@H](CC=O)C[C@@H](C)C(=O)/C=C/C(C)=C/[C@@H]1CO[C@@H]1O[C@H](C)[C@@H](O)[C@@H](OC)[C@H]1OC [Tylosin]	125,9%	-7,8%	92,2%	1,90	–	–	–	–	–	–	–	–
